Source: patent publication US7166761B2, “Method of screening PTPζ activity promoter or inhibitor” (priority 2000, dated 2007)
Where two headings read alike, the source gives them in different places.

What was measured:
[1] = test system: mice; assay: Effects of psychostimulant drugs on locomotor activity; assay type: in vivo, mouse
Description: The effects of psychostimulant drugs on locomotor activity were measured in a clear acrylic chamber (40×40×40 cm) by measuring animal movements with an electromagnetic activity monitoring system (sensor unit 0603, scanner 1099, Panlab). Before drug administration, the animals were acclimated to the measurement circumstance for at least 90 minutes. The animals were then administered with a stimulant drug, methamphetamine (METH) (1 mg/kg, s.c.), GBR12909 (2 mg/kg, i.p.), apomorphine (1 mg/kg, s.c.), or p-chloro-amphetamine (2 mg/kg, i.p.), and saline as administered to a control, and locomotor activity was monitored for the next 60 minutes.

[2] = test system: nucleus accumbens (NAC); assay: In vivo microdialysis of nucleus accumbens: METH-induced DA release and locomotion; parameters: species or system mouse
Description: Mice were anaesthetized with sodium pentobarbital (80 mg/kg i.p.) and placed in a stereotaxic apparatus. A hole was drilled through the skull and an intracerebral guide cannula (CMA 11, CMA/Microdialysis AB) was inserted into the nucleus accumbens (NAC) and fixed with dental cement. The stereotaxic coordinates for implantation of the guide cannula in both wild-type and PTPζ-deficient mice were: anterior, +1.1 mm, ventral, +3.6 mm, lateral, +1.0 mm to the surface of bregma. 24 hours after the surgery, mice were chained to a counterbalance lever arm attached to a locomotor activity chamber (30×30 cm) with an infrared monitoring apparatus (SCANET LC-10, Toyo Sangyo Co., Ltd.). Dialysis probes (membrane length 1 mm; external diameter 0.24 mm; cuprophane CUP 11, CMA/Microdialysis AB) were inserted through the guide cannula and perfusion was performed with artificial cerebrospinal fluid (ACSF), pH 7.4, (in mM; 145.ONaCl, 2.7 KCl, 1.2 CaCl2, 1.0 MgCl2, and 2.0 NaH2PO4) at a flow rate of 2 μl/min. Perfusates were collected from freely moving animals every 20 minutes in a tube containing 20 μl of 0.4 M HClO4 (CMA 170). Samples were collected and assayed using HPLC-ECD as described above except for the following modifications: the column was MCM C-18 (4.6×150 mm) and the buffer contained 75 mM NaH2PO4, 1.7 mM 1-octanesulfonic acid sodium salt, 0.1 mM triethylamine, 25 μM EDTA·2Na and 10% acetonitrile, at flow rate of 0.55 ml/min at 30° C. The electrode was set at +320 mV. METH administration (1 mg/kg s.c.) or local infusion of high K^+ solution (in mM: 47.7 NaCl, 100.0 KCl, 1.2 CaCl2, 1.0 MgCl2, and 2.0 NaH2PO4, pH 7.4) through the microdialysis probe was performed after the state became steady.

[3] = test system: striatal synaptosomes; details: [3H] DA 1 to 10 nM, 30 degree C; for Km: read-out: [3H] DA uptake Km, mean±SEM of three
Description: Dopamine (DA) uptake was measured as follows. Striatal synaptosome tissue pools (3 animals/pool) were homogenized in 100 volume (v/w) of 0.32 M sucrose in a teflonglass homogenizer and centrifuged at 12,000 rpm for 10 minutes. The crude synaptosomal pellet was resuspended in 0.32 M sucrose at a concentration of 30 mg/ml (original wet weight) and divided into 30 μl aliquots. Each aliquot was added with 270 μl of Krebs-Ringer phosphate buffer with increasing concentrations of [^3H] DA (final 1–10 nM, […], Amersham Pharmacia Biotech UK Ltd.). After incubating the resultant solution for 3 minutes at 30° C., uptake was quickly terminated by filtration through Whatman GF/C glass filters. The filters were rinsed three times with 2.5 ml ice-cold 0.32 M sucrose and measured by using a liquid scintillation counter at an efficiency of 50%. Blank values were measured in the presence of 10 μM GBR12909.
[^3H] DA was mixed with striatal synaptosomes and [^3H] DA uptake into tissues was measured (the above-mentioned method A-6-1). The homogenate of the striatal synaptosomes was incubated for 2 minutes at 30° C. in the presence of [^3H] DA (1 to 10 nM).

[4] = test system: mouse gastric epithelium; assay: Gastric ulcer formation caused by oral pleiotrophin; assay type: in vivo; details: 48 hours
Description: The role of PTPζ in gastric ulcer formation caused by pleiotrophin was examined as follows. After a mouse (female) of 4 weeks old was starved for 24 hours (fed water ad libitum), pleiotrophin (Peptide Institute, Inc.) was orally administered to the mouse with a sound. 48 hours later, gastric specimens were prepared and the surface of inside wall of stomach was observed by a stereomicroscope, and then pathologic specimens were prepared by hematoxylen eosin staining and analyzed.

CN1CCc2cccc3c2[C@H]1Cc1ccc(O)c(O)c1-3 [apomorphine]
locomotor activity, responsiveness of PTPζ-deficient mice ([1]; 2 mg/kg, s.c., total counts during 60 minutes after administration): normal

CN[C@@H](C)Cc1ccccc1 [methamphetamine]
DA release in NAC, PTPζ-deficient compared to wild-type mice ([2]; PTPζ−/− mice (n=6), 1 mg/kg, s.c., microdialysis): markedly diminished DA release | METH-enhanced locomotion, PTPζ−/− compared to wild-type mice ([2]; freely moving animals during microdialysis, infrared monitoring apparatus): statistically attenuated | extracellular DA in nucleus accumbens ([2]; wild-type mice (n=7), 1 mg/kg, s.c., microdialysis): definitely increased | locomotor response, PTPζ−/− compared to wild-type mice ([1]; 1 mg/kg, s.c., electromagnetic sensors, n=9 per genotype): significantly attenuated locomotor response

CC(N)Cc1ccc(Cl)cc1 (centres unmarked) [p-chloro-amphetamine]
locomotor activity, sensitivity of PTPζ-deficient mice ([1]; 2 mg/kg, i.p., total counts during 60 minutes after administration, 5-HT liberator): hyposensitive

NCCc1ccc(O)c(O)c1 [[^3H] DA, dopamine]
[3H] DA uptake Vmax ([3]; PTPζ+/+ mice): 45.74 ± 2.77 pmol/3 min/mg | [3H] DA uptake Vmax ([3]; PTPζ−/− mice): 58.70 ± 1.03 pmol/3 min/mg | Km ([3]; PTPζ+/+ mice): 0.109 ± 0.00245 µM | Km ([3]; PTPζ−/− mice): 0.147 ± 0.0113 µM

B1: pleiotrophin: a heparin-binding secretory protein of 18 kD that binds to extracellular regions of PTPζ (protein, UniProt P21246 33-168, looked up)
Pleiotrophin: GKKEKPEKKVKKSDCGEWQWSVCVPTSGDCGLGTREGTRTGAECKQTMKTQRCKIPCNWKKQFGAECKYQFQAWGECDLNTALKTRTGSLKRALHNAECQKTVTISKPCGKLTKPKPQAESKKKKKEGKKQEKMLD
hematoxylen eosin staining of gastric specimens ([4]; PTPζ-deficient mice): totally normal | epithelial damage on gastric epithelium under a stereomicroscope ([4]; PTPζ−/− mice): no damage was observed | epithelial damage on gastric epithelium under a stereomicroscope ([4]; wild-type mice): Profuse bleeding | hematoxylen eosin staining of gastric specimens ([4]; wild-type mice): obvious damage
